# Laboratory results published in article PMC11484942, “Rumicidins are a family of mammalian host-defense peptides plugging the 70S ribosome exit tunnel” (Nature Communications, 2024).
# System: E. coli ATCC 25922
# Experiment: Systemic septicemia infection mouse model
# Type: in vivo, BALB/c mice
# Conditions: 10 mg/kg IP once (1 h post-infection); n = 5
# Experimental: All animal studies were performed at the State Research Center for Applied Microbiology & Biotechnology (SRCAMB) in Obolensk (Russia), approved by the Institutional Bioethics Committee of the SRCAMB (Animal Research Protocol #VP-2022/1) and performed according to the Russian Federal rules and Directive 2010/63/EU of the European Parliament and of the Council. Experiments were performed with female eight- to ten-week-old BALB/c mice (“Andreevka” laboratory animal nursery FMBA, Russia). The animals were housed in groups of 5 in polycarbonate cages, and the following housing conditions were used: 12/12 h dark/light cycle, ambient temperature of 20 ÷ 22 °C, 50% humidity. Food and water were provided ad libitum. In vivo efficacy of rumicidins was tested in the mouse septicemia model induced by E. coli ATCC 25922. Mice were infected with 0.5 mL of bacterial suspension (1 × 10^6 CFU per animal) in saline supplemented with 2.5% mucin (w/v) via intraperitoneal (IP) injection. A total of 4 groups with 5 animals were used. […] The second group received saline (as a vehicle control) and administered IP once (1 h post-infection). Two other groups received rumicidin-1 or rumicidin-3 each administered IP three times (1, 4, and 8 h post-infection) at a dose of 10 mg/kg or of 5 mg/kg, respectively. Survival was monitored for 7 days. After that survived animals were euthanized by CO2 asphyxiation. […]
compound,measurement,value
O=C(O)c1cn(C2CC2)c2cc(N3CCNCC3)c(F)cc2c1=O [Ciprofloxacin],survival,survival of all mice
